Article PMC10096648, “A conserved hymenopteran-specific family of cytochrome P450s protects bee pollinators from toxic nectar alkaloids” (Science Advances, 2023)

What was measured:
[1] = molecular target: T1, CYP336A1 (Apis mellifera, UniProt A0A8U0WT43, D298G); experiment: fluorogenic model substrate assay, recombinant microsomes; assay type: biochemical; conditions: NADPH; activity present only in the mutant
T1 construct: gene LOC724211; codon-optimised; microsomes of baculovirus-infected High Five insect cells, coexpressed with A. mellifera NADPH-cytochrome P450 reductase
T1 sequence (A0A8U0WT43 entry or part of it D298G): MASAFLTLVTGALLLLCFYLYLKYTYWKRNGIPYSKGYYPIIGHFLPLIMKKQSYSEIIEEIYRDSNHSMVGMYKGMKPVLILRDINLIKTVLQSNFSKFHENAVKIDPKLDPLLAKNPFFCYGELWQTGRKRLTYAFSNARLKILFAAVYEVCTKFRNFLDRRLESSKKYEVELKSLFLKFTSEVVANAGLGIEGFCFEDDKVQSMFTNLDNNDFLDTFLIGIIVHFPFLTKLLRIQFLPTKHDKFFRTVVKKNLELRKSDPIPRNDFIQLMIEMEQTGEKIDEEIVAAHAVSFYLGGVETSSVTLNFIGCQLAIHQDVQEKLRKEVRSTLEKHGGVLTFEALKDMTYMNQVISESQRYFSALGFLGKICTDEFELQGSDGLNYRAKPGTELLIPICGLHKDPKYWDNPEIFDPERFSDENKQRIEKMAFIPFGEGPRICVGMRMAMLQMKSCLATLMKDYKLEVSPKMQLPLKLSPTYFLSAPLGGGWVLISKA

[2] = substrate: CN1CCC[C@H]1c1cccnc1; experiment: nicotine depletion by UPLC-MS/MS, recombinant microsomes; assay type: biochemical, Apis mellifera; conditions: NADPH regeneration system, pH 7.6, 30°C, 30 min, 0.78-100 μM nicotine

Molecule: O=c1cc(C(F)(F)F)c2ccc(OCc3ccccc3)cc2o1 [BFC, 7-benzyloxy-4-(trifluoromethyl)coumarin]
- fluorogenic model substrate assay, recombinant microsomes [1]: the D298G substitution leads to significant activity toward BFC

B1: CYP336A1 (Apis mellifera) (protein)
chain: MASAFLTLVTGALLLLCFYLYLKYTYWKRNGIPYSKGYYPIIGHFLPLIMKKQSYSEIIEEIYRDSNHSMVGMYKGMKPVLILRDINLIKTVLQSNFSKFHENAVKIDPKLDPLLAKNPFFCYGELWQTGRKRLTYAFSNARLKILFAAVYEVCTKFRNFLDRRLESSKKYEVELKSLFLKFTSEVVANAGLGIEGFCFEDDKVQSMFTNLDNNDFLDTFLIGIIVHFPFLTKLLRIQFLPTKHDKFFRTVVKKNLELRKSDPIPRNDFIQLMIEMEQTGEKIDEEIVAAHAVSFYLDGVETSSVTLNFIGCQLAIHQDVQEKLRKEVRSTLEKHGGVLTFEALKDMTYMNQVISESQRYFSALGFLGKICTDEFELQGSDGLNYRAKPGTELLIPICGLHKDPKYWDNPEIFDPERFSDENKQRIEKMAFIPFGEGPRICVGMRMAMLQMKSCLATLMKDYKLEVSPKMQLPLKLSPTYFLSAPLGGGWVLISKA
notes: codon-optimised; microsomes of baculovirus-infected High Five insect cells, coexpressed with A. mellifera NADPH-cytochrome P450 reductase
- Km [2]: 12.77 µM
